Key:
Glucose oxidase (GOD) = biological target: T1, Glucose oxidase (GOD) (Aspergillus niger, UniProt P13006); test: Electron transfer activity 1: GOD-glucose-compound, current at +300 mV; type: biochemical; settings: +300 mV vs Ag/AgCl, pH 6.0
T1 construct: purchased Boehringer-Mannheim
Method: Measurement of electron transfer activities of TEPD, TCPD, THEPD, TDHPD, HTEPD, N,N'-BHPD, N,N-BHDPD, N,N'-BHDPD, and p-phenylenediamine derivatives having substituted amino group by reacting p-phenylenediamine with propyleneoxide--1
Glucose oxidase (GOD, manufactured by Boehringer-Mannheim) was dissolved in 0.1M phosphate buffer (pH 6.0) containing 0.1M NaCl to prepare 0M and 4.0×10^-4 M GOD solutions. Also, glucose (manufactured by Junsei Kagaku) was dissolved in the same buffer to prepare a 1.5M solution. In the same manner, each of the TEPD, TCPD, THEPD, TDHPD, HTEPD, N,N-BHDPD, N,N'-BHPD, N,N'-BHDPD, and p-phenylenediamine derivatives having substituted amino group by reacting p-phenylenediamine with propyleneoxide obtained in Synthesis Examples 1 to 9 was dissolved in the same buffer to prepare a 5.0×10^-3 M solution.
(§1) Each of these solutions was mixed in 0.1M phosphate buffer (pH 6.0) containing 0.1M NaCl in the following mixing ratio just before the measurement to prepare solutions of the following compositions A and B, and current was measured continuously in the presence (composition A) or absence (composition B) of GOD.
Using the same apparatus of Test Example 2, electric current was measured in the presence (composition A) or absence (composition B) of GOD for 10 minutes under application of potential of +300 mV (vs Ag/AgCl) to the working electrode.

[1] = biological target: T2, Horseradish peroxidase (HRPO) (Armoracia rusticana, UniProt P00433); test: Electron transfer activity 2: HRPO-hydrogen peroxide-compound, current at -80 mV or -150 mV; type: biochemical; settings: -80 mV or -150 mV vs Ag/AgCl, pH 6.0
T2 construct: purchased TOYOBO
T2 sequence (P00433 31-338 limits assumed): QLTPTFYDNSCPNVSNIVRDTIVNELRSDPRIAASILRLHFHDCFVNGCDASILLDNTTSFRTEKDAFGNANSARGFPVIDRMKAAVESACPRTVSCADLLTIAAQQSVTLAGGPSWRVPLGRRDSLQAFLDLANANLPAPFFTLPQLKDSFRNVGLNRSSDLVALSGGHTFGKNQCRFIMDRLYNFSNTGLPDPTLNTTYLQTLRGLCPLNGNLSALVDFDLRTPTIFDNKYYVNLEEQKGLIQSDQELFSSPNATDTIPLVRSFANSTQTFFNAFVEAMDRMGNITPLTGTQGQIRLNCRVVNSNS
Method: Measurement of electron transfer activities of TCPD, THEPD, TDHPD, HTEPD, N,N-BHDPD, N,N'-BHPD, N,N'-BHDPD, and p-phenylenediamine derivatives having substituted amino group by reacting p-phenylenediamine with propyleneoxide--2
Horseradish peroxidase (HRPO, manufactured by TOYOBO) was dissolved in 0.1M phosphate buffer (pH 6.0) containing 0.1M NaCl to prepare 0M and 5.0×10^-7 M HRPO solutions. Also, hydrogen peroxide (manufactured by Wako Pure Chemical Industries) was dissolved in the same buffer to prepare a 1.0×10^-1 M solution. In the same manner, each of the TCPD, THEPD, TDHPD, HTEPD, N,N-BHDPD, N,N'-BHPD, N,N'-BHDPD, and p-phenylenediamine derivatives having substituted amino group by reacting p-phenylenediamine with propyleneoxide obtained in Synthesis Examples 1 to 9 was dissolved in the same buffer to prepare a 5.0×10^-3 M solution.
as §1, with “B, and electric current was” for “B, and current was”, “B) of HRPO.” for “B) of GOD.”
Using the same apparatus of Test Example 2, electric current was measured in the presence (composition A) or absence (composition B) of HRPO for 5 or 10 minutes after application of potential of -80 mV (vs Ag/AgCl, the same shall apply hereinafter) in the case of TEPD, THEPD, and TDHPD, or -150 mV in the case of TCPD, HTEPD, N,N-BHDPD, N,N'-BHPD, N,N'-BHDPD, and p-phenylenediamine derivatives having substituted amino group by reacting p-phenylenediamine with propyleneoxide.

T1 sequence (P13006 17-605): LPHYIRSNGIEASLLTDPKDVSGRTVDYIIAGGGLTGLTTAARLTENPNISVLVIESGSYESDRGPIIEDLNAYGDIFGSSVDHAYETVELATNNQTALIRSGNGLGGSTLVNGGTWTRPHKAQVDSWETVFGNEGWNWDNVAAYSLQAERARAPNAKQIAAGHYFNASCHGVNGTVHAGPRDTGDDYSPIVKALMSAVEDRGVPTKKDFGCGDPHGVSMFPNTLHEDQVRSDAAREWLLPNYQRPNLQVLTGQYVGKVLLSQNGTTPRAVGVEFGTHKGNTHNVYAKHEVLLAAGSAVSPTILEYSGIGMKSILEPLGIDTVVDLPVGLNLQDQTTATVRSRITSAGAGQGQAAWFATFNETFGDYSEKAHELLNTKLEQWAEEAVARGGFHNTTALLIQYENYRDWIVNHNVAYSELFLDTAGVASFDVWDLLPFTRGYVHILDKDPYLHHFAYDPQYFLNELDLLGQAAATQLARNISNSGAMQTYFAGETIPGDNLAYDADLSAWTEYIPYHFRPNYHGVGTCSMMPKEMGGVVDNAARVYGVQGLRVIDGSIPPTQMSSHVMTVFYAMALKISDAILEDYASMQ

Structure (SMILES)	function as electron mediator between GOD and the electrode (Glucose oxidase (GOD))	function as electron mediator between HRPO and the electrode [1]
CCN(CC)c1ccc(N(CC)CC)cc1.Cl.Cl [TEPD, N,N,N',N'-tetraethyl-p-phenylenediamine dihydrochloride, reference compound]	function as a reversible electron mediator between GOD and the electrode	function as a reversible electron mediator between HRPO and the electrode
Cl.Cl.OCCN(CCO)c1ccc(N(CCO)CCO)cc1 [THEPD, N,N,N',N'-tetrakis-(2'-hydroxyethyl)-p-phenylenediamine dihydrochloride]	function as a reversible electron mediator between GOD and the electrode	function as a reversible electron mediator between HRPO and the electrode
